{"source": "PubChem BioAssay AID1963827", "about": "(Molecular Pharmacology Branch, DTP, NCI, 2024);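 also: spheroids exposed to drugs for 7 days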;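 as to viability, T/C: 100% = DMSO vehicle treated spheroids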", "system": "994946-033-R-J1-PDC complex spheroid viability", "experiment": "Anticancer human tumor 994946-033-R-J1-PDC patient-derived melanoma cell line growth inhibition [POLQ]", "details": "for IC50: curve of first compound; for viability, T/C: stronger effect = lower value", "in_short": "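Complex spheroid viability model combining PDC tumour cells with endothelial (HUVEC) and MSC stromal cells. Novobiocin, ART-558 or RP6685 were tested singly and in combination with standard and investigational anticancer drugs. Each was titrated in half-log steps from near clinical Cmax, or from 10 microM where Cmax was unknown.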", "key": {"[1]": {"details": "second compound 0.0316 µM, first compound 0.0316 µM"}, "[2]": {"details": "second compound 0.0316 µM, first compound 0.1 µM"}, "[3]": {"details": "second compound 0.0316 µM, first compound 0.316 µM"}, "[4]": {"details": "second compound 0.0316 µM, first compound 1 µM"}, "[5]": {"details": "second compound 0.1 µM, first compound 0.0316 µM"}, "[6]": {"details": "second compound 0.1 µM, first compound 0.1 µM"}, "[7]": {"details": "second compound 0.1 µM, first compound 0.316 µM"}, "[8]": {"details": "second compound 0.1 µM, first compound 1 µM"}, "[9]": {"details": "second compound 0.316 µM, first compound 0.0316 µM"}, "[10]": {"details": "second compound 0.316 µM, first compound 0.1 µM"}, "[11]": {"details": "second compound 0.316 µM, first compound 0.316 µM"}, "[12]": {"details": "second compound 0.316 µM, first compound 1 µM"}, "[13]": {"details": "second compound 1 µM, first compound 0.0316 µM"}, "[14]": {"details": "second compound 1 µM, first compound 0.1 µM"}, "[15]": {"details": "second compound 1 µM, first compound 0.316 µM"}, "[16]": {"details": "second compound 1 µM, first compound 1 µM"}, "[17]": {"details": "second compound 3.16 µM, first compound 0.0316 µM"}, "[18]": {"details": "second compound 3.16 µM, first compound 0.1 µM"}, "[19]": {"details": "second compound 3.16 µM, first compound 0.316 µM"}, "[20]": {"details": "second compound 3.16 µM, first compound 1 µM"}, "[21]": {"details": "second compound 10 µM, first compound 0.0316 µM"}, "[22]": {"details": "second compound 10 µM, first compound 0.1 µM"}, "[23]": {"details": "second compound 10 µM, first compound 0.316 µM"}, "[24]": {"details": "second compound 10 µM, first compound 1 µM"}}, "data": [{"smiles": "CNCc1ccc(-c2[nH]c3cc(F)cc4c3c2CCNC4=O)cc1", "note": "+ Cc1cccc(N(C)C(=O)C2C(O)CCN2c2nc(C)cc(C(F)(F)F)c2C#N)c1", "values": [{"measurement": "IC50", "setting": "second compound 0.0316 µM", "value": "> 10000", "unit": "nM"}, {"measurement": "IC50", "setting": "second compound 0.1 µM", "value": "> 10000", "unit": "nM"}, {"measurement": "IC50", "setting": "second compound 0.316 µM", "value": "> 10000", "unit": "nM"}, {"measurement": "IC50", "setting": "second compound 1 µM", "value": "> 10000", "unit": "nM"}, {"measurement": "IC50", "setting": "second compound 3.16 µM", "value": "> 10000", "unit": "nM"}, {"measurement": "IC50", "setting": "second compound 10 µM", "value": "> 10000", "unit": "nM"}, {"measurement": "viability, T/C", "setting": "[1]", "value": 88.4, "unit": "%"}, {"measurement": "viability, T/C", "setting": "[2]", "value": 103, "unit": "%"}, {"measurement": "viability, T/C", "setting": "[3]", "value": 132, "unit": "%"}, {"measurement": "viability, T/C", "setting": "[4]", "value": 77.5, "unit": "%"}, {"measurement": "viability, T/C", "setting": "second compound 0.0316 µM, first compound 3.16 µM", "value": 94.8, "unit": "%"}, {"measurement": "viability, T/C", "setting": "second compound 0.0316 µM, first compound 10 µM", "value": 78.8, "unit": "%"}, {"measurement": "viability, T/C", "setting": "[5]", "value": 85.5, "unit": "%"}, {"measurement": "viability, T/C", "setting": "[6]", "value": 117, "unit": "%"}, {"measurement": "viability, T/C", "setting": "[7]", "value": 102, "unit": "%"}, {"measurement": "viability, T/C", "setting": "[8]", "value": 81.4, "unit": "%"}, {"measurement": "viability, T/C", "setting": "second compound 0.1 µM, first compound 3.16 µM", "value": 92, "unit": "%"}, {"measurement": "viability, T/C", "setting": "second compound 0.1 µM, first compound 10 µM", "value": 92.7, "unit": "%"}, {"measurement": "viability, T/C", "setting": "[9]", "value": 113, "unit": "%"}, {"measurement": "viability, T/C", "setting": "[10]", "value": 115, "unit": "%"}, {"measurement": "viability, T/C", "setting": "[11]", "value": 90.9, "unit": "%"}, {"measurement": "viability, T/C", "setting": "[12]", "value": 78.8, "unit": "%"}, {"measurement": "viability, T/C", "setting": "second compound 0.316 µM, first compound 3.16 µM", "value": 92.8, "unit": "%"}, {"measurement": "viability, T/C", "setting": "second compound 0.316 µM, first compound 10 µM", "value": 106, "unit": "%"}, {"measurement": "viability, T/C", "setting": "[13]", "value": 105, "unit": "%"}, {"measurement": "viability, T/C", "setting": "[14]", "value": 101, "unit": "%"}, {"measurement": "viability, T/C", "setting": "[15]", "value": 89.9, "unit": "%"}, {"measurement": "viability, T/C", "setting": "[16]", "value": 73.1, "unit": "%"}, {"measurement": "viability, T/C", "setting": "second compound 1 µM, first compound 3.16 µM", "value": 112, "unit": "%"}, {"measurement": "viability, T/C", "setting": "second compound 1 µM, first compound 10 µM", "value": 104, "unit": "%"}, {"measurement": "viability, T/C", "setting": "[17]", "value": 107, "unit": "%"}, {"measurement": "viability, T/C", "setting": "[18]", "value": 90.5, "unit": "%"}, {"measurement": "viability, T/C", "setting": "[19]", "value": 109, "unit": "%"}, {"measurement": "viability, T/C", "setting": "[20]", "value": 100, "unit": "%"}, {"measurement": "viability, T/C", "setting": "second compound 3.16 µM, first compound 3.16 µM", "value": 109, "unit": "%"}, {"measurement": "viability, T/C", "setting": "second compound 3.16 µM, first compound 10 µM", "value": 89.4, "unit": "%"}, {"measurement": "viability, T/C", "setting": "[21]", "value": 103, "unit": "%"}, {"measurement": "viability, T/C", "setting": "[22]", "value": 79, "unit": "%"}, {"measurement": "viability, T/C", "setting": "[23]", "value": 118, "unit": "%"}, {"measurement": "viability, T/C", "setting": "[24]", "value": 91.2, "unit": "%"}, {"measurement": "viability, T/C", "setting": "second compound 10 µM, first compound 3.16 µM", "value": 86.8, "unit": "%"}, {"measurement": "viability, T/C", "setting": "second compound 10 µM, first compound 10 µM", "value": 83.2, "unit": "%"}]}, {"smiles": "COc1cccc(OCCCN)c1-c1cc(Nc2cnc(C#N)cn2)n[nH]1", "note": "+ Cc1cccc(N(C)C(=O)C2C(O)CCN2c2nc(C)cc(C(F)(F)F)c2C#N)c1", "values": [{"measurement": "IC50", "setting": "second compound 0.0316 µM", "value": 25.6, "unit": "nM"}, {"measurement": "IC50", "setting": "second compound 0.1 µM", "value": 14.7, "unit": "nM"}, {"measurement": "IC50", "setting": "second compound 0.316 µM", "value": 17.7, "unit": "nM"}, {"measurement": "IC50", "setting": "second compound 1 µM", "value": 9.64, "unit": "nM"}, {"measurement": "IC50", "setting": "second compound 3.16 µM", "value": 14.3, "unit": "nM"}, {"measurement": "IC50", "setting": "second compound 10 µM", "value": 79.8, "unit": "nM"}, {"measurement": "viability, T/C", "setting": "second compound 0.0316 µM, first compound 0.00316 µM", "value": 96, "unit": "%"}, {"measurement": "viability, T/C", "setting": "second compound 0.0316 µM, first compound 0.01 µM", "value": 93.4, "unit": "%"}, {"measurement": "viability, T/C", "setting": "[1]", "value": 40.3, "unit": "%"}, {"measurement": "viability, T/C", "setting": "[2]", "value": 22.7, "unit": "%"}, {"measurement": "viability, T/C", "setting": "[3]", "value": 22, "unit": "%"}, {"measurement": "viability, T/C", "setting": "[4]", "value": 17.4, "unit": "%"}, {"measurement": "viability, T/C", "setting": "second compound 0.1 µM, first compound 0.00316 µM", "value": 99.8, "unit": "%"}, {"measurement": "viability, T/C", "setting": "second compound 0.1 µM, first compound 0.01 µM", "value": 60.3, "unit": "%"}, {"measurement": "viability, T/C", "setting": "[5]", "value": 29.9, "unit": "%"}, {"measurement": "viability, T/C", "setting": "[6]", "value": 19, "unit": "%"}, {"measurement": "viability, T/C", "setting": "[7]", "value": 19.1, "unit": "%"}, {"measurement": "viability, T/C", "setting": "[8]", "value": 18.6, "unit": "%"}, {"measurement": "viability, T/C", "setting": "second compound 0.316 µM, first compound 0.00316 µM", "value": 76.6, "unit": "%"}, {"measurement": "viability, T/C", "setting": "second compound 0.316 µM, first compound 0.01 µM", "value": 68.5, "unit": "%"}, {"measurement": "viability, T/C", "setting": "[9]", "value": 31.3, "unit": "%"}, {"measurement": "viability, T/C", "setting": "[10]", "value": 20.1, "unit": "%"}, {"measurement": "viability, T/C", "setting": "[11]", "value": 24.2, "unit": "%"}, {"measurement": "viability, T/C", "setting": "[12]", "value": 12.4, "unit": "%"}, {"measurement": "viability, T/C", "setting": "second compound 1 µM, first compound 0.00316 µM", "value": 120, "unit": "%"}, {"measurement": "viability, T/C", "setting": "second compound 1 µM, first compound 0.01 µM", "value": 44.5, "unit": "%"}, {"measurement": "viability, T/C", "setting": "[13]", "value": 36.8, "unit": "%"}, {"measurement": "viability, T/C", "setting": "[14]", "value": 33.1, "unit": "%"}, {"measurement": "viability, T/C", "setting": "[15]", "value": 27, "unit": "%"}, {"measurement": "viability, T/C", "setting": "[16]", "value": 18.6, "unit": "%"}, {"measurement": "viability, T/C", "setting": "second compound 3.16 µM, first compound 0.00316 µM", "value": 88.9, "unit": "%"}, {"measurement": "viability, T/C", "setting": "second compound 3.16 µM, first compound 0.01 µM", "value": 51, "unit": "%"}, {"measurement": "viability, T/C", "setting": "[17]", "value": 46.8, "unit": "%"}, {"measurement": "viability, T/C", "setting": "[18]", "value": 18.1, "unit": "%"}, {"measurement": "viability, T/C", "setting": "[19]", "value": 28.9, "unit": "%"}, {"measurement": "viability, T/C", "setting": "[20]", "value": 18.5, "unit": "%"}, {"measurement": "viability, T/C", "setting": "second compound 10 µM, first compound 0.00316 µM", "value": 68, "unit": "%"}, {"measurement": "viability, T/C", "setting": "second compound 10 µM, first compound 0.01 µM", "value": 57.6, "unit": "%"}, {"measurement": "viability, T/C", "setting": "[21]", "value": 86.7, "unit": "%"}, {"measurement": "viability, T/C", "setting": "[22]", "value": 44.9, "unit": "%"}, {"measurement": "viability, T/C", "setting": "[23]", "value": 38.2, "unit": "%"}, {"measurement": "viability, T/C", "setting": "[24]", "value": 23.5, "unit": "%"}]}]}
